Assay results reported in US3966715A, “Herbicidal agents” (Bayer Aktiengesellschaft, priority 1966, dated 1976).

Columns and labels:
Format in all cases: in vivo
[1] = tested on: Wheat; assay: Post-emergence test, wheat; conditions: three weeks
Experimental: (§1) Solvent: 5 parts by weight acetone
(§2) 1 part by weight benzyloxypolyglycol ether
(§3) To produce a suitable preparation of the particular active compound, 1 part by weight of such active compound is mixed with the stated amount of solvent, the stated amount of emulsifier is then added and the resulting concentrate is thereafter diluted with water to the desired final concentration.
(§4) Test plants which have a height of about 5--15 cm. are sprayed with the preparation of the given active compound until just dew moist. After three weeks, the degree of damage to the plants is determined and characterized by the values 0-5, which have the following meaning:
(§5) The procedure of Example 2 is repeated, and the particular active compounds tested, and amounts applied, and the results obtained can be seen from the following Table 2E: […]

[2] = tested on: test plants; assay: Post-emergence test, overall; conditions: Example 2
Experimental: as §1, §2, §3, §4, §5

[3] = tested on: Echinochloa; assay: Pre-emergence test, Echinochloa; conditions: three weeks
Experimental: as §1, §2, §3
(§6) Seeds of the test plants are sown in normal soil and, after 24 hours, watered with the preparation of the given active compound. It is expedient to keep constant the amount of water per unit area. The concentration of the particular active compound in the preparation is of no importance, only the amount of active compound applied per unit area being decisive. After three weeks, the degree of damage to the test plants is determined and characterized by the values 0-5, which have the following meaning:
(§7) The procedure of Example 1 is repeated, and the particular active compounds tested, the amounts applied, and the results obtained can be seen from the following Table 1D: […]

[4] = tested on: Chenopodium; assay: Post-emergence test, Chenopodium; conditions: three weeks
Experimental: as §1, §2, §3, §4, §5

[5] = tested on: Cotton; assay: Post-emergence test, cotton; conditions: three weeks
Experimental: as §1, §2, §3, §4, §5

[6] = tested on: Echinochloa; assay: Post-emergence test, Echinochloa; conditions: three weeks
Experimental: as §1, §2, §3, §4, §5

[7] = tested on: Stellaria; assay: Post-emergence test, Stellaria; conditions: three weeks
Experimental: as §1, §2, §3, §4, §5

[8] = tested on: Oats; assay: Pre-emergence test, oats; conditions: three weeks
Experimental: as §1, §2, §3, §6, §7

[9] = tested on: Wheat; assay: Pre-emergence test, wheat; conditions: three weeks
Experimental: as §1, §2, §3, §6, §7

[10] = tested on: Chenopodium; assay: Pre-emergence test, Chenopodium; conditions: three weeks
Experimental: as §1, §2, §3, §6, §7

[11] = tested on: Oats; assay: Post-emergence test, oats; conditions: three weeks
Experimental: as §1, §2, §3, §4, §5

[12] = tested on: Cotton; assay: Pre-emergence test, cotton; conditions: three weeks
Experimental: as §1, §2, §3, §6, §7

[13] = tested on: Sinapis; assay: Pre-emergence test, Sinapis; conditions: three weeks
Experimental: as §1, §2, §3, §6, §7

[14] = tested on: plants and weeds; assay: General herbicidal activity; conditions: compared with compound 221

CSc1nnc(C(C)C)c(=O)n1N [Compound 21, 3-methylthio-4-amino-6-isopropyl-1,2,4-triazine-5-one]
degree of damage, Wheat ([1]; 0.01 % active compound): 4-5 | kind of herbicidal action [2]: pronouncedly total-herbicidal action

C=CCNc1nnc(-c2ccccc2)c(=O)n1N [Compound 26, 3-allylamino-4-amino-6-phenyl-1,2,4-triazine-5-one]
degree of damage, Echinochloa ([3]; 5 kg/hectare): 4-5 | degree of damage, Chenopodium ([4]; 0.6 Kg/hectare): 4-5 | kind of herbicidal action [2]: pronouncedly selective-herbicidal action in wheat and carrots

CSc1nnc(-c2ccccc2)c(=O)n1N=Cc1ccccn1 [Compound 28, 3-methylthio-4-(pyrid-2'-yl-methylidene-amino)-6-phenyl-1,2,4-triazine-5-one]
kind of herbicidal action [2]: pronouncedly selective-herbicidal action in snap beans and wheat

CCCCNc1nnc(-c2ccccc2)c(=O)n1N [Compound 100a, 3-n-butylamino-4-amino-6-phenyl-1,2,4-triazine-5-one]
degree of damage, Wheat ([1]; 10 Kg/hectare): 2-3 | degree of damage, Cotton ([5]; 10 Kg/hectare): 2-3 | degree of damage, Echinochloa ([6]; 10 Kg/hectare): 2-3

Nn1c(NCc2ccccc2)nnc(-c2ccccc2)c1=O [Compound 102a, 3-benzylamino-4-amino-6-phenyl-1,2,4-triazine-5-one]
degree of damage, Cotton ([5]; 10 Kg/hectare): 2-3

CSc1nnc(C2CCCCO2)c(=O)n1N (centres unmarked) [Compound 163, 3-methylthio-4-amino-6-(tetrahydropyran-2'-yl)-1,2,4-triazine-5-one]
degree of damage, Wheat ([1]; 0.6 Kg/hectare): 3-4 | degree of damage, Wheat ([1]; 1.2 Kg/hectare): 4-5 | degree of damage, Chenopodium ([4]; 0.6 Kg/hectare): 4-5 | degree of damage, Echinochloa ([6]; 2.4 Kg/hectare): 4-5

C=CCNc1nnc(C(C)C)c(=O)n1N [Compound 179, 3-(α-allylamino)-4-amino-6-isopropyl-1,2,4-triazine-5-one]
degree of damage, Chenopodium ([4]; 0.6 Kg/hectare): 4-5 | degree of damage, Stellaria ([7]; 1.2 Kg/hectare): 4-5

CSc1nnc(C2CCCCC2)c(=O)n1NC(O)C(Cl)(Cl)Cl (stereo not drawn) [Compound 193, 3-methylthio-4-(β-trichloro-α-hydroxy-ethyl)-amino-6-cyclohexyl-1,2,4-triazine-5-one]
degree of damage, Oats ([8]; 2.5 kg/hectare): 4-5 | degree of damage, Wheat ([9]; 5 kg/hectare): 4-5 | degree of damage, Chenopodium ([10]; 2.5 kg/hectare): 4-5 | degree of damage, Oats ([11]; 1.2 Kg/hectare): 4-5 | degree of damage, Wheat ([1]; 2.4 Kg/hectare): 4-5

CSc1nnc(C(C)C)c(=O)n1N=C(C)C [Compound 194, 3-methylthio-4-(prop-2'-ylidene-amino)-6-isopropyl-1,2,4-triazine-5-one]
degree of damage, Wheat ([9]; 1.25 kg/hectare): 4-5 | degree of damage, Cotton ([12]; 1.25 kg/hectare): 4-5 | degree of damage, Wheat ([1]; 1.2 Kg/hectare): 4-5 | degree of damage, Wheat ([1]; 2.4 Kg/hectare): 4-5 | degree of damage, Cotton ([5]; 0.6 Kg/hectare): 4-5

COc1ccc(C=Nn2c(SC)nnc(C(C)C)c2=O)cc1 [Compound 207, 3-methylthio-4-(4'-methoxy-benzylidene-amino)-6-isopropyl-1,2,4-triazine-5-one]
degree of damage, Oats ([8]; 5 kg/hectare): 4-5 | degree of damage, Wheat ([9]; 5 kg/hectare): 4-5 | degree of damage, Cotton ([12]; 5 kg/hectare): 4-5 | degree of damage, Oats ([11]; 2.4 Kg/hectare): 4-5 | degree of damage, Wheat ([1]; 1.2 Kg/hectare): 3-4 | degree of damage, Wheat ([1]; 2.4 Kg/hectare): 3-4 | degree of damage, Cotton ([5]; 0.6 Kg/hectare): 4-5

CSc1nnc(C(C)C)c(=O)n1N=Cc1cccc([N+](=O)[O-])c1 [Compound 209, 3-methylthio-4-(3'-nitro-benzylidene-amino)-6-isopropyl-1,2,4-triazine-5-one]
degree of damage, Oats ([8]; 2.5 kg/hectare): 4-5 | degree of damage, Oats ([8]; 5 kg/hectare): 4-5 | degree of damage, Cotton ([12]; 1.25 kg/hectare): 4-5 | degree of damage, Cotton ([12]; 2.5 kg/hectare): 4-5 | degree of damage, Cotton ([12]; 5 kg/hectare): 4-5 | degree of damage, Chenopodium ([10]; 1.25 kg/hectare): 4-5 | degree of damage, Chenopodium ([10]; 2.5 kg/hectare): 4-5 | degree of damage, Oats ([11]; 2.4 Kg/hectare): 4-5

CSc1nnc(C(C)C)c(=O)n1N=Cc1ccc(C)cc1 [Compound 213, 3-methylthio-4-(4'-methyl-benzylidene-amino)-6-isopropyl-1,2,4-triazine-5-one]
degree of damage, Oats ([8]; 1.25 kg/hectare): 4-5 | degree of damage, Oats ([8]; 2.5 kg/hectare): 4-5 | degree of damage, Cotton ([12]; 2.5 kg/hectare): 4-5 | degree of damage, Cotton ([12]; 5 kg/hectare): 4-5 | degree of damage, Echinochloa ([3]; 1.25 kg/hectare): 4-5 | degree of damage, Oats ([11]; 1.2 Kg/hectare): 3-4 | degree of damage, Oats ([11]; 2.4 Kg/hectare): 4-5 | degree of damage, Wheat ([1]; 0.6 Kg/hectare): 2-3 | degree of damage, Wheat ([1]; 1.2 Kg/hectare): 3-4 | degree of damage, Stellaria ([7]; 0.6 Kg/hectare): 4-5 | degree of damage, Echinochloa ([6]; 0.6 Kg/hectare): 4-5

CSc1nnc(C(C)C)c(=O)n1N=CC(C)C [Compound 214, 3-methylthio-4-(isobutylidene-amino)-6-isopropyl-1,2,4-triazine-5-one]
degree of damage, Wheat ([9]; 2.5 kg/hectare): 4-5 | degree of damage, Oats ([11]; 0.6 Kg/hectare): 4-5 | degree of damage, Cotton ([5]; 0.6 Kg/hectare): 4-5 | degree of damage, Cotton ([5]; 1.2 Kg/hectare): 4-5

CSc1nnc(C(C)(C)C)c(=O)n1N=Cc1ccco1 [Compound 222, 3-methylthio-4-(furfur-2'-ylidene-amino)-6-tert.-butyl-1,2,4-triazine-5-one]
degree of damage, Oats ([8]; 1.25 kg/hectare): 4-5 | degree of damage, Wheat ([9]; 5 kg/hectare): 4-5 | degree of damage, Cotton ([12]; 1.25 kg/hectare): 4-5 | degree of damage, Sinapis ([13]; 1.25 kg/hectare): 4-5 | degree of damage, Wheat ([1]; 2.4 Kg/hectare): 4-5 | degree of damage, Stellaria ([7]; 0.6 Kg/hectare): 4-5 | usefulness as herbicide [14]: similarly useful

CSc1nnc(C2CCCCC2)c(=O)n1N=Cc1ccccc1 [Compound 225, 3-methylthio-4-(benzylidene-amino)-6-cyclohexyl-1,2,4-triazine-5-one]
degree of damage, Cotton ([12]; 2.5 kg/hectare): 4-5 | degree of damage, Echinochloa ([3]; 1.25 kg/hectare): 4-5 | degree of damage, Oats ([11]; 2.4 Kg/hectare): 4-5 | degree of damage, Wheat ([1]; 0.6 Kg/hectare): 3-4 | degree of damage, Echinochloa ([6]; 0.6 Kg/hectare): 4-5

CSc1nnc(C2CCCCC2)c(=O)n1N=Cc1ccco1 [Compound 226, 3-methylthio-4-(furfur-2'-ylidene-amino)-6-cyclohexyl-1,2,4-triazine-5-one]
degree of damage, Oats ([8]; 5 kg/hectare): 4-5 | degree of damage, Cotton ([12]; 5 kg/hectare): 3-4 | degree of damage, Echinochloa ([3]; 2.5 kg/hectare): 4-5 | degree of damage, Oats ([11]; 2.4 Kg/hectare): 4-5 | degree of damage, Cotton ([5]; 2.4 Kg/hectare): 4-5

CSc1nnc(C2CCCCC2)c(=O)n1N=C1CCCCC1 [Compound 227, 3-methylthio-4-(cyclohexylidene-amino)-6-cyclohexyl-1,2,4-triazine-5-one]
degree of damage, Wheat ([9]; 2.5 kg/hectare): 4-5 | degree of damage, Wheat ([9]; 5 kg/hectare): 4-5 | degree of damage, Sinapis ([13]; 1.25 kg/hectare): 4-5 | degree of damage, Echinochloa ([3]; 1.25 kg/hectare): 4-5 | degree of damage, Wheat ([1]; 2.4 Kg/hectare): 4-5 | degree of damage, Chenopodium ([4]; 2.4 Kg/hectare): 4-5 | degree of damage, Stellaria ([7]; 2.4 Kg/hectare): 4-5

CSc1nnc(C2CCCCC2)c(=O)n1N=CC(C)C [Compound 229, 3-methylthio-4-(isobutylidene-amino)-6-cyclohexyl-1,2,4-triazine-5-one]
degree of damage, Oats ([8]; 2.5 kg/hectare): 4-5 | degree of damage, Wheat ([9]; 5 kg/hectare): 4-5 | degree of damage, Cotton ([12]; 5 kg/hectare): 4-5 | degree of damage, Echinochloa ([3]; 1.25 kg/hectare): 4-5

CNc1nnc(C(C)(C)C)c(=O)n1N=Cc1ccccc1 [Compound 230, 3-methylamino-4-(benzylidene-amino)-6-tert.-butyl-1,2,4-triazine-5-one]
degree of damage, Oats ([8]; 5 kg/hectare): 4-5 | degree of damage, Wheat ([9]; 5 kg/hectare): 4-5 | degree of damage, Cotton ([12]; 5 kg/hectare): 4-5 | degree of damage, Sinapis ([13]; 2.5 kg/hectare): 4-5 | degree of damage, Chenopodium ([10]; 2.5 kg/hectare): 4-5 | degree of damage, Echinochloa ([3]; 2.5 kg/hectare): 4-5 | degree of damage, Echinochloa ([3]; 5 kg/hectare): 4-5 | degree of damage, Oats ([11]; 2.4 Kg/hectare): 4-5 | degree of damage, Stellaria ([7]; 0.6 Kg/hectare): 4-5 | degree of damage, Echinochloa ([6]; 1.2 Kg/hectare): 4-5 | degree of damage, Echinochloa ([6]; 2.4 Kg/hectare): 4-5

CNc1nnc(C(C)(C)C)c(=O)n1N=Cc1ccc(Cl)cc1 [Compound 233, 3-methylamino-4-(4'-chloro-benzylidene-amino)-6-tert.-butyl-1,2,4-triazine-5-one]
degree of damage, Echinochloa ([3]; 5 kg/hectare): 4-5 | degree of damage, Oats ([11]; 1.2 Kg/hectare): 4-5 | degree of damage, Oats ([11]; 2.4 Kg/hectare): 4-5 | degree of damage, Wheat ([1]; 0.6 Kg/hectare): 4-5 | degree of damage, Wheat ([1]; 1.2 Kg/hectare): 4-5 | degree of damage, Cotton ([5]; 2.4 Kg/hectare): 4-5
